Results taken from PMC7070167, “Cell‐permeable high‐affinity tracers for Gq proteins provide structural insights, reveal distinct binding kinetics and identify small molecule inhibitors” (British Journal of Pharmacology, 2020).
Read-outs that look alike come from different tables or passages of the source. *1 amine or outer side, *2 acyl side, *3 side chain or, on linkers, in order; H or OH if unused. Where a SMILES comes first, the peptide text is derived from it. Bridges are numbered along the chain shown (N, C = ends). [ ]: non-standard residue; d: D form. The star is where a group is joined. Leu(3R-O(AcLeu(3R-OH))) = CC(=O)N[C@H](C(=O)O[C@H](C(C)C)[C@H](N)C(=O)O)[C@H](O)C(C)C; Leu(3R-OH,Nα-propionyl) = CCC(=O)N[C@H](C(=O)*)[C@H](O)C(C)C; X1 = CC(C)[C@@H](O[*:3])[C@H](N[*:1])C(=O)[*:2]; NMeT = CN[C@H](C(=O)O)[C@@H](C)O; dPhLac = O=C(O)[C@H](O)Cc1ccccc1; NMeA = CN[C@@H](C)C(=O)O; NMeDha = C=C(NC)C(=O)O

Target: T1, Gq proteins (Homo sapiens, UniProt P50148)
T1 construct: Native cell membrane preparations from rat brain cortex and human blood platelets; host or cells: human platelets (intact suspension or membrane preparation)
T1 sequence (P50148 1-359): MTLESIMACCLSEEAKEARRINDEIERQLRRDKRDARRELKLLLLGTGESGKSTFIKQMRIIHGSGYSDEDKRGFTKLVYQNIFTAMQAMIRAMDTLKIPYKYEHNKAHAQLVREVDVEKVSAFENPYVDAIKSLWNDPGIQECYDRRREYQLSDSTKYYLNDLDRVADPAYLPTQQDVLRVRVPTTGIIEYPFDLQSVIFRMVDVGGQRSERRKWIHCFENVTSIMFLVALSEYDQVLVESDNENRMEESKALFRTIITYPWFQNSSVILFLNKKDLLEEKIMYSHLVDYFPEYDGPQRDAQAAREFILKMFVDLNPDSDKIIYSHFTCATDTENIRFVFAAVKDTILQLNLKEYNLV
Test: Competition binding at intact human platelets
Conditions: 37°C
Protocol: Apheresis‐purified human thrombocyte‐plasma concentrates (PRP) were obtained from the blood bank, University of Bonn, in accordance with ethical guidelines, and directly used. For radioligand binding assays, they were diluted with 50‐mM Tris–HCl buffer, pH 7.4, to obtain a concentration of 7.5 × 10^6 platelets/50 μl (corresponding to a 1:10 dilution).
The experiments were performed in 50‐mM Tris–HCl buffer, pH 7.4. The final assay volume of 200 μl contained 5 μl of test compound in DMSO, 50 μl of [^3H]PSB‐15900 or [^3H]PSB‐16254, respectively, in buffer, 5 nM of final concentration, and 100 μl of human platelet membrane preparation (50 μg of protein) or intact human platelets (7.5 × 10^6 cells/vial). Non‐specific binding was determined in the presence of 5‐μM FR. The incubation was started by the addition of membrane preparation and was performed at 37°C for 1 hr with gentle shaking. It was terminated by rapid vacuum filtration through GF/C glass‐fibre filters using a Brandel 24‐well harvester. The filters were rinsed three times with approximately 3 ml each of ice‐cold Tris–HCl buffer, 50 mM, pH 7.4 containing 0.1% Tween 20 and 0.1% BSA, to separate bound from free radioligand. The filters were punched out and transferred to scintillation vials. Luma Safe® scintillation cocktail (2.5 ml) was added, and after 6 hr of incubation, the samples were counted for 1 min each, using a liquid scintillation counter (counting efficiency 53%). Experiments in the presence of GTP were additionally performed after preincubation of the membrane preparation with GTP for 1 hr. pIC50 and pKi values were calculated using equations for one‐site competition as implemented in GraphPad Prism 6.01 (GraphPad Inc., La Jolla, CA, USA).

[1] = versus [^3H]PSB‐15900 (5 nM), read-out: pKi (converted)
[2] = versus [³H]PSB-15900 (5 nM), read-out: Ki

| SMILES | Ki [1] [nM] | Ki [2] [nM] |
| --- | --- | --- |
| C=C1C(=O)N[C@@H](C)C(=O)N(C)[C@@H](C)C(=O)N[C@@H]([C@H](OC(=O)[C@@H](NC(=O)CC)[C@H](O)C(C)C)C(C)C)C(=O)N(C)[C@@H]([C@@H](C)OC)C(=O)O[C@H](C(C)C)[C@H](NC(C)=O)C(=O)O[C@H](Cc2ccccc2)C(=O)N1C [FR, FR900359] (Ac-[X1][dPhLac][NMeDha]A[NMeA][X1](Leu(3R-OH,Nα-propionyl))[NMeT](Me); ester 1-C) | 2.09 | 2.14 ± 0.87 |
| C=C1C(=O)N[C@@H](C)C(=O)N(C)[C@@H](C)C(=O)N[C@@H]([C@H](OC(=O)[C@@H](NC(C)=O)[C@H](O)C(C)C)C(C)C)C(=O)N(C)[C@@H]([C@@H](C)OC)C(=O)O[C@H](C)[C@H](NC(C)=O)C(=O)O[C@H](Cc2ccccc2)C(=O)N1C [YM, YM‐254890] (Ac-T[dPhLac][NMeDha]A[NMeA][Leu(3R-O(AcLeu(3R-OH)))][NMeT](Me); ester 1-C) | 2.09 | 2.29 ± 0.38 |
